Test results taken from ChEMBL document CHEMBL5543122, “Discovery of HC-7366: An Orally Bioavailable and Efficacious GCN2 Kinase Activator” (J Med Chem, 2024).

Key:
[1] = Cmax in Sprague-Dawley rat at 3 mg/kg, po measured upto 24 hrs; format: ADME, organism-based; conditions: in vivo
[2] = Half-life in Sprague-Dawley rat at 1 mg/kg, iv measured upto 24 hrs; format: ADME, organism-based; conditions: in vivo
[3] = target: T1, Eukaryotic translation initiation factor 2-alpha kinase 3 (Homo sapiens, UniProt Q9NZJ5); test: Activation of PERK in HEK293 cells transfected with ATF4 response element preincubated for 30 mins followed by tunicamycin addition and measured after 6 hrs by One-Glo reagent based plate reader assay; format: cell-based
T1 sequence (Q9NZJ5 whole entry): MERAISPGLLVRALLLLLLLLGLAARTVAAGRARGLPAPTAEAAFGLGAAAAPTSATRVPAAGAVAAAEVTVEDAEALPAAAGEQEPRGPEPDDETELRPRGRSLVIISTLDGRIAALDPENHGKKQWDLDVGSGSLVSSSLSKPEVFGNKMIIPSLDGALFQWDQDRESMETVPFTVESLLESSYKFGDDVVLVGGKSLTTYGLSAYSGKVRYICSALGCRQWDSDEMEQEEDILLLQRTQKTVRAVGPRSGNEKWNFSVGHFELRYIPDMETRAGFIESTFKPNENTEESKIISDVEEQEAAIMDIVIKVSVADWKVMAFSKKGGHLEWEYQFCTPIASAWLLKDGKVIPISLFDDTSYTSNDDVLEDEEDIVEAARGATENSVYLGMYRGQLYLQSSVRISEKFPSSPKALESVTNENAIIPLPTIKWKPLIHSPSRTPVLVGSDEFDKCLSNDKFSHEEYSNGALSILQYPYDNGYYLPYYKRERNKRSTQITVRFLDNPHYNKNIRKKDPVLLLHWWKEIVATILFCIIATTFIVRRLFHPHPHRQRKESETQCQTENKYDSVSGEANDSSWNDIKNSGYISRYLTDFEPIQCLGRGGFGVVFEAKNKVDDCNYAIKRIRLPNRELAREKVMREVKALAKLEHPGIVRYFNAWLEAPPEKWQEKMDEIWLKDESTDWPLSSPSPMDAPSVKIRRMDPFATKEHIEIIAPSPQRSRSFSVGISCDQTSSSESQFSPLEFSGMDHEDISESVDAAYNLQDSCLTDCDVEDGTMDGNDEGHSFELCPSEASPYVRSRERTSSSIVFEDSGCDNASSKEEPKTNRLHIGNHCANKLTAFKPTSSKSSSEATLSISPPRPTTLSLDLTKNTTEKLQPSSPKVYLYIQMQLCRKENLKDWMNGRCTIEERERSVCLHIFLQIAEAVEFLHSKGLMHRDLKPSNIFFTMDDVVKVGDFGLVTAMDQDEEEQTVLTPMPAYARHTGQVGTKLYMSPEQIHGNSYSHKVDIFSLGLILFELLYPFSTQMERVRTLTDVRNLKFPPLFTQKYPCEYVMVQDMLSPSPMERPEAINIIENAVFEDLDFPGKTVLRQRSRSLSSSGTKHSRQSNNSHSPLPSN

[4] = Unbound clearance in Sprague-Dawley rat plasma at 1 mg/kg, iv measured upto 24 hrs; format: ADME, organism-based; conditions: in vivo
[5] = Unbound Cmax in Sprague-Dawley rat at 3 mg/kg, po measured upto 24 hrs; format: ADME, organism-based; conditions: in vivo
[6] = Volume of distribution at steady state in Sprague-Dawley rat at 1 mg/kg, iv measured upto 24 hrs; format: ADME, organism-based; conditions: in vivo, read-out: Vdss
[7] = Intrinsic clearance in human hepatocytes assessed per 10^4 cells at 1 uM measured upto 120 mins by UPLC-MS/MS analysis; format: ADME, cell-based, Hepatocyte; conditions: 2 h

Cmax [1]: 10.1 µM
half-life [2]: 6.3 h
EC50 [3]: 6.9 µM
CL free [4]: 290 mL/min/kg
fCmax [5]: 7.1 nM
Vd [6]: 0.093 L/kg
CLH [7]: 4.7 µL/min
Compound: CNC(=O)c1ncn2cc(-c3c(F)ccc(NS(=O)(=O)c4cc(Cl)cnc4OC)c3F)ncc12
